# Measured values as given in patent US9512152B2, “Phospholipid compound containing unsaturated fatty acid derivative having cyclopropane ring” (NISHIZAKI BIOINFORMATION RESEARCH INSTITUTE, priority 2013, dated 2016).
# Legend:
# Assay in all cases: Cell-free PKC assay
# Type in all cases: biochemical
# PKC isozymes = settings: 100 μM, FIG. 5
# Description: (§1) PKC activity in a cell-free system was quantified by the method described in a previous report (Kanno T et al. J Lipid Res 2006; 47: 1146-1156). In short, synthesized PKC substrate peptide (10 μM) was reacted with various PKC isozymes in a medium containing 20 mM Tris-HCl (pH 7.5), 5 mM magnesium acetate, 10 μM ATP, and DCP-LA-phospholipid in the absence of phosphatidylserine and diacylglycerol at 30° C. for 5 min. A Ca^2+-free medium was used for novel PKC such as PKC-δ, -ε and the like, and a 100 μM CaCl2-containing medium was used for other PKC isozymes. They were loaded on reversed-phase HPLC (LC-10ATvp, Shimadzu Co., Kyoto, Japan), and the peaks of substrate peptide and new resultant products were measured at an absorbance of 214 nm. The areas of non-phosphorylated PKC substrate peptide and phosphorylated PKC substrate peptide were measured (total area corresponds to the concentration of PKC substrate peptide used in this Example), and the amount of the phosphorylated substrate peptide was calculated. The amount of the phosphorylated substrate peptide (pmol/1 min) per 1 min was used as an index of the PKC activity.
# PKCζ = molecular target: T1, PKCζ (Homo sapiens, UniProt Q05513); settings: 100 μM, FIG. 6
# T1 sequence (Q05513 1-592): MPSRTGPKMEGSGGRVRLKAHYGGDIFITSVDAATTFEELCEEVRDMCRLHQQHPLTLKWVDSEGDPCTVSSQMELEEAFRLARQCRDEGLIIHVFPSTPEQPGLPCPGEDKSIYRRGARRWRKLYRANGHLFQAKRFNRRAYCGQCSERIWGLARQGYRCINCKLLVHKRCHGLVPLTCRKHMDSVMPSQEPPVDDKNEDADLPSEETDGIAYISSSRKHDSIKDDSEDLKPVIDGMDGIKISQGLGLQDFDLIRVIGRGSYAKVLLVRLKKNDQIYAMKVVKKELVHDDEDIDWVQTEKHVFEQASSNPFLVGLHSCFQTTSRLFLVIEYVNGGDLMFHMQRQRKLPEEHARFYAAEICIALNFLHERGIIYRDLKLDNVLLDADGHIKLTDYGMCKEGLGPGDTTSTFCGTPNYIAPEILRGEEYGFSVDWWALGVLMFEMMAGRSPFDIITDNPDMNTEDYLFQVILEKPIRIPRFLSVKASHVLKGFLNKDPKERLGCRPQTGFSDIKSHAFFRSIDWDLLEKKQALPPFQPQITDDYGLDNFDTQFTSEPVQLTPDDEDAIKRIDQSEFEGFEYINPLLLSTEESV
# Description: as §1
# PKCι = molecular target: T2, PKCι (Homo sapiens, UniProt P41743); settings: 100 μM, FIG. 6
# T2 sequence (P41743 1-596): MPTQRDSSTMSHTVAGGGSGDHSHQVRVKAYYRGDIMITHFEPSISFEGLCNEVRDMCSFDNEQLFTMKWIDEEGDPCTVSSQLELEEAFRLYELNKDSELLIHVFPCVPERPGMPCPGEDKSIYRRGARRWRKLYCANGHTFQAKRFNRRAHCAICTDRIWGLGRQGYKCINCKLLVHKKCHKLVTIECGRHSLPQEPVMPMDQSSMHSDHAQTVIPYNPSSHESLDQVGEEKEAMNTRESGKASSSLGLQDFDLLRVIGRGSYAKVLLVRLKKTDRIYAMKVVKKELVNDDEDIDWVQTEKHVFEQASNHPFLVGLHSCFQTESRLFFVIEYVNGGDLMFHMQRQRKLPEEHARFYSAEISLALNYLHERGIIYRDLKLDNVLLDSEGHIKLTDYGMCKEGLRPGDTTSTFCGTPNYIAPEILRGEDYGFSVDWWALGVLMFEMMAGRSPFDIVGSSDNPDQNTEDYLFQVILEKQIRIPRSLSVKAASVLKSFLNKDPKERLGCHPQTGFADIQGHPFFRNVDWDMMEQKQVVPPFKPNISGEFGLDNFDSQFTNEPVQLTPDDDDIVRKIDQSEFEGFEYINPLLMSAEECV
# Description: as §1
compound,measurement,setting,value
"CCCCCC1CC1CC1CC1CCCCCCCC(=O)OC[C@H](COP(=O)(O)OCCN)OC(=O)CCCCCCCC1CC1CC1CC1CCCCC (stereo partly drawn) [diDCP-LA-PE, 1,2-o-bis-[8-{2-(2-pentyl-cyclopropylmethyl)-cyclopropyl}-octanoyl]-sn-glycero-3-phosphatidylethanolamine]","PKC activation, all PKC isozymes",PKC isozymes,activates all PKC isozymes
same,"PKCζ activation, specificity",PKCζ,specific activating agent of PKCι and PKCζ
same,"PKCι activation, specificity",PKCι,specific activating agent of PKCι and PKCζ
